Source: US20240390438A1, “PROBIOTICS SEPARATED FROM RABBIT FECES AND FOOD CONTAINING PROBIOTICS” (AGENT Innovation Co., Ltd., priority 2021, published 2024)
In brackets after ≈: the same amount, converted by molar mass.

Tests used:
Colony LP5 = test: Antibiotic susceptibility test; assay type: cell-based, Lactiplantibacillus Plantarum
Excerpt: (§1) To test bacterial susceptibility to antibiotics, such as Aminoglycosides antibiotics, Sulfonamide antibiotics, Quinolone antibiotics, Ampicillin, Cefotaxime, Chloramphenicol, Erythromycin, Rifampicin and Tetracycline, the experimental protocol were as follow. Further, the Quinolone antibiotics comprise Ciprofloxacin, the Aminoglycosides antibiotics comprise Kanamycin and […], and the Sulfonamide antibiotics comprise Sulfamethoxazole. […] The initial absorbance at 600 nm (OD600) of each well was recorded. Then, the 96-well plates were placed at 37° C. and cultured for 24 hours. Next, the OD600 of each well was measured again to determine minimum inhibitory concentration.

Colony PTA22 = test: Antibiotic susceptibility test; assay type: cell-based, Lactiplantibacillus Plantarum
Excerpt: as §1

Colony LP1 = test: Antibiotic susceptibility test; assay type: cell-based, Lactiplantibacillus Plantarum
Excerpt: as §1

Colony LP2 = test: Antibiotic susceptibility test; assay type: cell-based, Lactiplantibacillus Plantarum; conditions: 96-well, 37 C 24 h, OD600
Excerpt: as §1

Colony LP19 = test: Antibiotic susceptibility test; assay type: cell-based, Lactiplantibacillus Plantarum
Excerpt: as §1

Salmonella enterica [1] = test: Minimum inhibitory concentration and minimum bacterial concentration; assay type: cell-based
Staphylococcus aureus [2] = test: as above; assay type: cell-based; conditions: antibiotics
Protocol: (§2) Minimum inhibitory concentration (MIC) refers to the minimum concentration at which the development of bacteria can be blocked and antibacterial resistance can be observed after cultured. The lower MIC means the better effect on bacteria.
(§3) The supernatants of the cultured colonies described above were collected, as cell-free solutions (CFSs), by centrifuge at 5000 rpm after cultured the colonies in a nutrient broth and shaking at 37° C. for 48 hours.
(§4) Next, 100 μL each of the CFSs and 100 μL bacterial solutions of the pathogenic bacteria were respectively added to each well of a 96-well plate. Thus, the total volume in each well was 200 μL. The tested pathogenic bacteria included Salmonella enterica, Shigella sonnei, Klebsiella pneumoniae, Streptococcus pneumoniae, Bacillus cereus, Staphylococcus aureus, Pseudomonas aeruginosa, and Escherichia coli.
(§5) As well, 100 μL each of the nutrient broth containing Ampicillin or Kanamycin and 100 μL bacterial solutions of the pathogenic bacteria were respectively added to each well of a 96-well plate. Thus, the total volume in each well was 200 μL.
(§6) Then, initial values of OD600 in each well were recorded. Subsequently, the 96-well plates were cultured at 37° C. for 24 hours, and the OD600 values thereof were re-recorded for determining the MICs of each colony described above.
(§7) Finally, 100 μL CFSs of the next three concentrations […] MIC were taken to be plated on nutrient agar and then cultured at 37° C. for 48-72 hours. The concentrations of the CFSs that no colonies grown on nutrient agar were determined to be the minimum bacterial concentration (MBCs).

Bacillus cereus [3] = test: as above; assay type: cell-based; conditions: antibiotics
Protocol: as §2, §3, §4, §5, §6, §7

Streptococcus pneumoniae [4] = test: as above; assay type: cell-based; conditions: antibiotics
Protocol: as §2, §3, §4, §5, §6, §7

Pseudomonas aeruginosa [5] = test: as above; assay type: cell-based; conditions: antibiotics
Protocol: as §2, §3, §4, §5, §6, §7

Escherichia coli (ETEC) [6] = test: as above; assay type: cell-based; conditions: antibiotics
Protocol: as §2, §3, §4, §5, §6, §7

Klebsiella pneumoniae [7] = test: as above; assay type: cell-based; conditions: antibiotics
Protocol: as §2, §3, §4, §5, §6, §7

Shigella sonnei [8] = test: as above; assay type: cell-based; conditions: antibiotics
Protocol: as §2, §3, §4, §5, §6, §7

Staphylococcus aureus [9] = test: Agar diffusion method-2 (cell-free solution); assay type: cell-based; conditions: colonies as cell-free solution in holes of TSA; ddH2O control 8
Protocol: (§8) Firstly, the CFSs (containing metabolites) were prepared. Besides, when probiotics break down fiber and convert the fiber into metabolites, the metabolites are postbiotics.
(§9) Next, the pathogenic bacteria described above were also cultured with 37° C. until the concentration thereof reached 1×10^8 CFU/mL, respectively. 100 μL bacterial solutions of the pathogenic bacteria described above were evenly plated on Tryptone Soy Agar (TSA) and stay for 10 minutes. Then, tips were used to form several holes in the TSA. Subsequently, 100 μL bacterial solutions of the colonies described above were added into the holes and then cultured at 37° C. for 12 hours.
(§10) This experiment is designed that the CFSs in the holes prevent the pathogenic bacteria on the plates from growing. Therefore, the larger zone indicates the better antibacterial effect.

Bacillus cereus [10] = test: Agar diffusion method-2 (cell-free solution); assay type: cell-based; conditions: colonies as cell-free solution in holes of TSA; ddH2O control 8
Protocol: as §8, §9, §10

Streptococcus pneumoniae [11] = test: Agar diffusion method-2 (cell-free solution); assay type: cell-based; conditions: colonies as cell-free solution in holes of TSA; ddH2O control 8
Protocol: as §8, §9, §10

Pseudomonas aeruginosa [12] = test: Agar diffusion method-2 (cell-free solution); assay type: cell-based; conditions: colonies as cell-free solution in holes of TSA; ddH2O control 8
Protocol: as §8, §9, §10

Salmonella enterica [13] = test: Agar diffusion method-2 (cell-free solution); assay type: cell-based; conditions: colonies as cell-free solution in holes of TSA; ddH2O control 8
Protocol: as §8, §9, §10

Escherichia coli (ETEC) [14] = test: Agar diffusion method-2 (cell-free solution); assay type: cell-based; conditions: colonies as cell-free solution in holes of TSA; ddH2O control 8
Protocol: as §8, §9, §10

Klebsiella pneumoniae [15] = test: Agar diffusion method-2 (cell-free solution); assay type: cell-based; conditions: colonies as cell-free solution in holes of TSA; ddH2O control 8
Protocol: as §8, §9, §10

Shigella sonnei [16] = test: Agar diffusion method-2 (cell-free solution); assay type: cell-based; conditions: colonies as cell-free solution in holes of TSA; ddH2O control 8
Protocol: as §8, §9, §10

[17] = plated on nutrient agar 48-72 h

Compound: NC[C@H]1O[C@H](O[C@H]2[C@H](O)[C@@H](O[C@H]3O[C@H](CO)[C@@H](O)[C@H](N)[C@H]3O)[C@H](N)C[C@@H]2N)[C@H](O)[C@@H](O)[C@@H]1O [Kanamycin]
- Minimum inhibitory concentration of the antibiotic to LP5 (Colony LP5; 96-well, 37 C 24 h, OD600): >256 µg/mL
- MIC (Colony LP5; Lactiplantibacillus plantarum, LP5, 24 h, read-out: Minimum inhibitory concentration of the antibiotic to LP5, 96-well, 37 C 24 h, OD600): > 256 µg/mL
- Minimum inhibitory concentration of the antibiotic to PTA22 (Colony PTA22; 96-well, 37 C 24 h, OD600): >256 µg/mL
- MIC (Colony PTA22; Lactiplantibacillus plantarum, PTA22, 24 h, read-out: Minimum inhibitory concentration of the antibiotic to PTA22, 96-well, 37 C 24 h, OD600): > 256 µg/mL
- Minimum inhibitory concentration of the antibiotic to LP1 (Colony LP1; 96-well, 37 C 24 h, OD600): >256 µg/mL
- MIC (Colony LP1; Lactiplantibacillus plantarum, LP1, 24 h, read-out: Minimum inhibitory concentration of the antibiotic to LP1, 96-well, 37 C 24 h, OD600): > 256 µg/mL
- Minimum inhibitory concentration of the antibiotic to LP2 (Colony LP2): >256 µg/mL
- MIC (Colony LP2; Lactiplantibacillus plantarum, LP2, 24 h, read-out: Minimum inhibitory concentration of the antibiotic to LP2): > 256 µg/mL
- Minimum inhibitory concentration of the antibiotic to LP19 (Colony LP19; 96-well, 37 C 24 h, OD600): >256 µg/mL
- MIC (Colony LP19; Lactiplantibacillus plantarum, LP19, 24 h, read-out: Minimum inhibitory concentration of the antibiotic to LP19, 96-well, 37 C 24 h, OD600): > 256 µg/mL
- MIC (Salmonella enterica [1]; 24 h, read-out: MIC, Salmonella Enterica): 64 µg/mL (≈ 132 µM)
- MBC (Salmonella enterica [1]; antibiotics, plated on nutrient agar 48-72 h): 128 µg/mL (≈ 264 µM)
- MIC (Staphylococcus aureus [2]; 37 C 24 h, OD600): 4 µg/mL (≈ 8.26 µM)
- MBC (Staphylococcus aureus [2]; [17]): 8 µg/mL (≈ 16.5 µM)
- MIC (Bacillus cereus [3]; 37 C 24 h, OD600): 256 µg/mL (≈ 528 µM)
- MBC (Bacillus cereus [3]; [17]): > 256 µg/mL
- MIC (Streptococcus pneumoniae [4]; 37 C 24 h, OD600): 8 µg/mL (≈ 16.5 µM)
- MBC (Streptococcus pneumoniae [4]; [17]): 16 µg/mL (≈ 33 µM)
- MIC (Pseudomonas aeruginosa [5]; 37 C 24 h, OD600): 8 µg/mL (≈ 16.5 µM)
- MBC (Pseudomonas aeruginosa [5]; [17]): 16 µg/mL (≈ 33 µM)
- MIC (Escherichia coli (ETEC) [6]; 37 C 24 h, OD600): 64 µg/mL (≈ 132 µM)
- MBC (Escherichia coli (ETEC) [6]; [17]): 128 µg/mL (≈ 264 µM)
- MIC (Klebsiella pneumoniae [7]; 37 C 24 h, OD600): 32 µg/mL (≈ 66 µM)
- MBC (Klebsiella pneumoniae [7]; [17]): 64 µg/mL (≈ 132 µM)
- MIC (Shigella sonnei [8]; 37 C 24 h, OD600): 16 µg/mL (≈ 33 µM)
- MBC (Shigella sonnei [8]; [17]): 64 µg/mL (≈ 132 µM)
- Inhibitory zone, Staphylococcus Aureus (Staphylococcus aureus [9]): 23 mm
- Inhibitory zone, Bacillus Cereus (Bacillus cereus [10]): 20 mm
- Inhibitory zone, Streptococcus Pneumoniae (Streptococcus pneumoniae [11]): 20 mm
- Inhibitory zone, Pseudomonas Aeruginosa (Pseudomonas aeruginosa [12]): 20 mm
- Inhibitory zone, Salmonella Enterica (Salmonella enterica [13]): 16 mm
- Inhibitory zone, Escherichia coli (ETEC) (Escherichia coli (ETEC) [14]): 17 mm
- Inhibitory zone, Klebsiella Pneumoniae (Klebsiella pneumoniae [15]): 20 mm
- Inhibitory zone, Shigella Sonnei (Shigella sonnei [16]): 20 mm
